Measured values as given in ChEMBL document CHEMBL4342419 (Eur J Med Chem, 2019).

What was measured:
[1] = biological target: T1, 5-hydroxytryptamine receptor 1A (Homo sapiens, UniProt P08908); test: Antagonist activity at 5-HT1A receptor (unknown origin)
T1 sequence (P08908 whole entry): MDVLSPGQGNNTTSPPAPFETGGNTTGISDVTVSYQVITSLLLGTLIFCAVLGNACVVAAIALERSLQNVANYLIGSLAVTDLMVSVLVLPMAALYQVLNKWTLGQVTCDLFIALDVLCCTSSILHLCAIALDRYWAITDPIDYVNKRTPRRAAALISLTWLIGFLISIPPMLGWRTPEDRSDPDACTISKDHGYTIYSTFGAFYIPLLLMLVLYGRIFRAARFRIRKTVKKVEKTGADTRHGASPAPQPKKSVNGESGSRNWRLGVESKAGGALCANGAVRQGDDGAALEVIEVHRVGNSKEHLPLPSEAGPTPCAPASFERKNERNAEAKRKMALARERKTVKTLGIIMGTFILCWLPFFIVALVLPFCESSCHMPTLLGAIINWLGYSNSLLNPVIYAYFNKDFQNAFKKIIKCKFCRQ

[2] = biological target: T2, 5-hydroxytryptamine receptor 7 (Homo sapiens, UniProt P34969); test: biochemical; assay type: cell-based
T2 sequence (P34969 whole entry): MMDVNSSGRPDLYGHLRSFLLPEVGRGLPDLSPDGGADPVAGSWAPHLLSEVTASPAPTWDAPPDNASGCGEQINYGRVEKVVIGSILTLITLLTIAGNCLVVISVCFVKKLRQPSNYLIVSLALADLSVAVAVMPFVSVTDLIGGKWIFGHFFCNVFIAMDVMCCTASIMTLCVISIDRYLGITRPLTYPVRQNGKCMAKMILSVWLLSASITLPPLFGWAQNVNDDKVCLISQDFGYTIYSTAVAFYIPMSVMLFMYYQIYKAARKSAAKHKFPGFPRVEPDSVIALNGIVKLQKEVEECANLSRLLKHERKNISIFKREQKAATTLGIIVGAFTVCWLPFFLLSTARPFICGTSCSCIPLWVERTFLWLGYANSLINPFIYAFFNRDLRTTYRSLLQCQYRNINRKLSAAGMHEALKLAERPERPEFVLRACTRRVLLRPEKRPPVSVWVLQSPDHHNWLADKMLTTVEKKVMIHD

[3] = biological target: 5-hydroxytryptamine receptor 7 (Rattus norvegicus, UniProt P32305); test: Displacement of [3H]5-CT from recombinant rat 5-HT7 receptor expressed in HEK293 cells; assay type: cell-based
Sequence of 5-hydroxytryptamine receptor 7 (Rattus norvegicus, UniProt P32305) (P32305 whole entry): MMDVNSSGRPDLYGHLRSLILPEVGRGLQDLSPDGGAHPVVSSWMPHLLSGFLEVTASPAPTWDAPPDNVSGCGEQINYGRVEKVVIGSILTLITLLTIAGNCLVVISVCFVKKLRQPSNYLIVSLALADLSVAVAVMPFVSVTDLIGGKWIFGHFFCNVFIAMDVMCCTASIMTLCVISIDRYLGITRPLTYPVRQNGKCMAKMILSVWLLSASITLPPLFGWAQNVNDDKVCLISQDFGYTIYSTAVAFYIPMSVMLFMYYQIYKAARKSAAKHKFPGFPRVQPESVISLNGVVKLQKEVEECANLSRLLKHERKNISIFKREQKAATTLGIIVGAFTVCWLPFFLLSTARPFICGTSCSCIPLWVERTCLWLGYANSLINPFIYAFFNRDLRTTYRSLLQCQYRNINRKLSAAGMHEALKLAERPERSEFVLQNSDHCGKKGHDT

[4] = biological target: T2, 5-hydroxytryptamine receptor 7; test: Antagonist activity at 5-HT7 receptor (unknown origin)

SMILES	Ki [1]	also measured
CCOc1ccccc1N1CCN(CCCCC(=O)NCc2nc3cc(F)ccc3c(=O)n2-c2ccccc2)CC1		IC50 [1]: 500 nM
COc1ccc(S(=O)(=O)NCCCN2CCN(c3ccccc3OC)CC2)cc1	272 nM	
CCN(CC)C(=O)[C@@H]1C=C2c3cccc4[nH]c(Br)c(c34)C[C@H]2N(C)C1		Ki [2]: 31.6 nM
COc1ccccc1N1CCN(Cc2cn(-c3cccc4ccccc34)c3ccccc23)CC1	700 nM	
Cc1cccc(S(=O)(=O)N(C)[C@H](C)CCN2CCC(C)CC2)c1 [SB-258719]	> 3000 nM	
COc1cccc(OC)c1-c1cccc(CCN(C)C)c1	4830 nM	
O=C1Cc2ccccc2N1CC/C=C/CCN1CCc2ccccc2C1	> 1000 nM	
Cc1nn(C)c(C)c1-c1ccc(O)c(CCN(C)C)c1	> 10000 nM	
Clc1ccc(-c2nn(Cc3ccccc3)c3c2CCNCC3)cc1 [JNJ-18038683 FREE BASE]	6.5 nM	Ki [3]: 316 nM
CC(Nc1nc(N)nc(NCCOc2ccccc2)n1)c1ccccc1 (stereo not drawn)	> 100 nM	Ki [4]: 3 nM
CC(Nc1nc(N)nc(NCCOc2ccc(F)cc2)n1)c1ccc(F)cc1 (stereo not drawn)	> 100 nM	
CCC1(CCCCN2CCN(c3ccc(Cl)cc3)CC2)C(=O)Nc2cc(F)ccc21 (stereo not drawn)	1610 nM	
O=S(=O)(c1ccc2cc[nH]c2c1)N1CCC[C@H]1CCN1CCC(Oc2ccc(Cl)cc2)CC1	562 nM	Ki [4]: 1.99 nM
CNC(=O)Cn1c2c(c3ccccc31)CN(CCCCC13CCCc4cccc(c41)NC3=O)CC2 (stereo not drawn)	128 nM	Ki [4]: 3.54 nM
